{"source": "patent US20030050192A1", "about": "“Herbicidal composition” (priority 1998, published 2003)", "format_in_all_cases": "in vivo", "conditions_in_all_cases": "ten days after application", "key": {"Emex [1]": {"test_system": "Emex", "assay": "Example B2: post-emergent application of herbicide of formula I with/without safener, greenhouse, Emex"}, "Durum wheat": {"test_system": "Durum wheat", "assay": "Example B3: post-emergent application of herbicide of formula I with/without safener, greenhouse, durum wheat", "method": "Post-emergent Applications of Mixtures of a Herbicide of Formula I with a Safener of Formulae IIa to IIq to Durum Wheat.\n(§1) Under greenhouse conditions, durum wheat is grown in plastic pots to the 2.5-leaf stage. In this stage, both the herbicide of formula I alone and the mixture of the herbicide with a safener of formulae IIa to IIq are applied to the test plants. The test substances (Formulation Examples F3 a) and b)) are applied as aqueous suspension with 500 l water/ha. Ten days after the application, the results are evaluated on a percent scale."}, "Barley": {"test_system": "Barley", "assay": "Example B2: post-emergent application of herbicide of formula I with/without safener, greenhouse, barley", "method": "Post-emergent Applications of Mixtures of a Herbicide of Formula I with a Safener of Formulae IIa to IIq to barley\nas §1, with “barley” for “durum wheat”"}, "Setaria [2]": {"test_system": "Setaria", "assay": "Example B2: post-emergent application of herbicide of formula I with/without safener, greenhouse, Setaria"}, "Chenopodium [3]": {"test_system": "Chenopodium", "assay": "Example B2: post-emergent application of herbicide of formula I with/without safener, greenhouse, Chenopodium"}, "Wheat": {"test_system": "Wheat", "assay": "Example B1: post-emergent application of herbicide of formula I with/without safener, greenhouse, wheat", "method": "Post-emergent Applications of Mixtures of a Herbicide of Formula I with a Safener of Formulae IIa to IIq to Cereals\nas §1, with “conditions,” for “conditions, durum”"}, "Setaria [4]": {"test_system": "Setaria", "assay": "Example B1: post-emergent application of herbicide of formula I with/without safener, greenhouse, Setaria"}, "Raphanus [5]": {"test_system": "Raphanus", "assay": "Example B2: post-emergent application of herbicide of formula I with/without safener, greenhouse, Raphanus"}, "Emex [6]": {"test_system": "Emex", "assay": "Example B1: post-emergent application of herbicide of formula I with/without safener, greenhouse, Emex"}, "Setaria [7]": {"test_system": "Setaria", "assay": "Example B3: post-emergent application of herbicide of formula I with/without safener, greenhouse, Setaria"}, "Chenopodium [8]": {"test_system": "Chenopodium", "assay": "Example B3: post-emergent application of herbicide of formula I with/without safener, greenhouse, Chenopodium"}, "Raphanus [9]": {"test_system": "Raphanus", "assay": "Example B3: post-emergent application of herbicide of formula I with/without safener, greenhouse, Raphanus"}, "Raphanus [10]": {"test_system": "Raphanus", "assay": "Example B1: post-emergent application of herbicide of formula I with/without safener, greenhouse, Raphanus"}, "Chenopodium [11]": {"test_system": "Chenopodium", "assay": "Example B1: post-emergent application of herbicide of formula I with/without safener, greenhouse, Chenopodium"}, "Emex [12]": {"test_system": "Emex", "assay": "Example B3: post-emergent application of herbicide of formula I with/without safener, greenhouse, Emex"}, "[13]": {"conditions": "Herbicide of formula 1 alone 15 g/ha"}, "[14]": {"conditions": "Herbicide of formula 1 alone 60 g/ha"}, "[15]": {"conditions": "Herbicide of formula 1 alone 250 g/ha"}, "[16]": {"conditions": "Herbicide of formula 1 15 g/ha + safener 4 g/ha"}, "[17]": {"conditions": "Herbicide of formula 1 60 g/ha + safener 15 g/ha"}, "[18]": {"conditions": "Herbicide of formula 1 250 g/ha + safener 60 g/ha"}}, "note": "“And” between values parts separate entries of the source, which are not always exact repeats. Identical values can stand only once."}
{"smiles": "COc1nn(C(=O)NS(=O)(=O)c2ccccc2OC(F)(F)F)c(=O)n1C", "note": "[Herbicide of formula 1]", "values": [{"measurement": "herbicidal effect on Emex, percent scale", "setting": "Emex [1]; [13]", "value": 80, "unit": "%"}, {"measurement": "herbicidal effect on Emex, percent scale", "setting": "Emex [1]; [14]", "value": 90, "unit": "%"}, {"measurement": "damage to Durum wheat, percent scale", "setting": "Durum wheat; [15]", "value": 30, "unit": "%"}, {"measurement": "damage to Barley, percent scale", "setting": "Barley; [13]", "value": 30, "unit": "%"}, {"measurement": "damage to Barley, percent scale", "setting": "Barley; [14]", "value": 40, "unit": "%"}, {"measurement": "herbicidal effect on Setaria, percent scale", "setting": "Setaria [2]; [13]", "value": 70, "unit": "%"}, {"measurement": "herbicidal effect on Setaria, percent scale", "setting": "Setaria [2]; [14]", "value": 80, "unit": "%"}, {"measurement": "herbicidal effect on Chenopodium, percent scale", "setting": "Chenopodium [3]; [13]", "value": 90, "unit": "%"}, {"measurement": "herbicidal effect on Chenopodium, percent scale", "setting": "Chenopodium [3]; [14]", "value": 90, "unit": "%"}, {"measurement": "damage to Wheat, percent scale", "setting": "Wheat; [13]", "value": 10, "unit": "%"}, {"measurement": "damage to Wheat, percent scale", "setting": "Wheat; [14]", "value": 20, "unit": "%"}, {"measurement": "herbicidal effect on Setaria, percent scale", "setting": "Setaria [4]; [13]", "value": 70, "unit": "%"}, {"measurement": "herbicidal effect on Setaria, percent scale", "setting": "Setaria [4]; [14]", "value": 80, "unit": "%"}, {"measurement": "herbicidal effect on Raphanus, percent scale", "setting": "Raphanus [5]; [13]", "value": 80, "unit": "%"}, {"measurement": "herbicidal effect on Raphanus, percent scale", "setting": "Raphanus [5]; [14]", "value": 80, "unit": "%"}, {"measurement": "herbicidal effect on Emex, percent scale", "setting": "Emex [6]; [13]", "value": 80, "unit": "%"}, {"measurement": "herbicidal effect on Emex, percent scale", "setting": "Emex [6]; [14]", "value": 90, "unit": "%"}, {"measurement": "herbicidal effect on Setaria, percent scale", "setting": "Setaria [7]; [15]", "value": 80, "unit": "%"}, {"measurement": "herbicidal effect on Chenopodium, percent scale", "setting": "Chenopodium [8]; [15]", "value": 90, "unit": "%"}, {"measurement": "herbicidal effect on Raphanus, percent scale", "setting": "Raphanus [9]; [15]", "value": 90, "unit": "%"}, {"measurement": "herbicidal effect on Raphanus, percent scale", "setting": "Raphanus [10]; [13]", "value": 80, "unit": "%"}, {"measurement": "herbicidal effect on Raphanus, percent scale", "setting": "Raphanus [10]; [14]", "value": 80, "unit": "%"}, {"measurement": "herbicidal effect on Chenopodium, percent scale", "setting": "Chenopodium [11]; [13]", "value": "90% and 80%"}, {"measurement": "herbicidal effect on Chenopodium, percent scale", "setting": "Chenopodium [11]; [14]", "value": 90, "unit": "%"}, {"measurement": "herbicidal effect on Emex, percent scale", "setting": "Emex [12]; [15]", "value": 90, "unit": "%"}]}
{"smiles": "CCCCCC(C)OC(=O)COc1ccc(Cl)c2cccnc12", "note": "(stereo not shown) [Safener no. 1,01]", "values": [{"measurement": "damage to Wheat, percent scale", "setting": "Wheat; [16]", "value": 5, "unit": "%"}, {"measurement": "herbicidal effect on Setaria, percent scale", "setting": "Setaria [4]; [16]", "value": 70, "unit": "%"}, {"measurement": "herbicidal effect on Emex, percent scale", "setting": "Emex [6]; [16]", "value": 90, "unit": "%"}, {"measurement": "herbicidal effect on Raphanus, percent scale", "setting": "Raphanus [10]; [16]", "value": 80, "unit": "%"}, {"measurement": "herbicidal effect on Chenopodium, percent scale", "setting": "Chenopodium [11]; [16]", "value": 90, "unit": "%"}]}
{"smiles": "COC(=O)c1cc(-c2ccccc2)n(-c2ccccc2Cl)n1", "note": "[Safener no. 2,01]", "values": [{"measurement": "herbicidal effect on Emex, percent scale", "setting": "Emex [1]; [16]", "value": 90, "unit": "%"}, {"measurement": "herbicidal effect on Emex, percent scale", "setting": "Emex [1]; [17]", "value": 90, "unit": "%"}, {"measurement": "damage to Durum wheat, percent scale", "setting": "Durum wheat; [18]", "value": 10, "unit": "%"}, {"measurement": "damage to Barley, percent scale", "setting": "Barley; [16]", "value": 0, "unit": "%"}, {"measurement": "damage to Barley, percent scale", "setting": "Barley; [17]", "value": 10, "unit": "%"}, {"measurement": "herbicidal effect on Setaria, percent scale", "setting": "Setaria [2]; [16]", "value": 70, "unit": "%"}, {"measurement": "herbicidal effect on Setaria, percent scale", "setting": "Setaria [2]; [17]", "value": 70, "unit": "%"}, {"measurement": "herbicidal effect on Chenopodium, percent scale", "setting": "Chenopodium [3]; [16]", "value": 90, "unit": "%"}, {"measurement": "herbicidal effect on Chenopodium, percent scale", "setting": "Chenopodium [3]; [17]", "value": 90, "unit": "%"}, {"measurement": "herbicidal effect on Raphanus, percent scale", "setting": "Raphanus [5]; [16]", "value": 80, "unit": "%"}, {"measurement": "herbicidal effect on Raphanus, percent scale", "setting": "Raphanus [5]; [17]", "value": 80, "unit": "%"}, {"measurement": "herbicidal effect on Setaria, percent scale", "setting": "Setaria [7]; [18]", "value": 80, "unit": "%"}, {"measurement": "herbicidal effect on Chenopodium, percent scale", "setting": "Chenopodium [8]; [18]", "value": 95, "unit": "%"}, {"measurement": "herbicidal effect on Raphanus, percent scale", "setting": "Raphanus [9]; [18]", "value": 80, "unit": "%"}, {"measurement": "herbicidal effect on Emex, percent scale", "setting": "Emex [12]; [18]", "value": 90, "unit": "%"}]}
{"smiles": "CCOC(=O)c1nc(C(Cl)(Cl)Cl)n(-c2ccc(Cl)cc2Cl)n1", "note": "[Safener no. 2,05]", "values": [{"measurement": "herbicidal effect on Emex, percent scale", "setting": "Emex [1]; [17]", "value": 90, "unit": "%"}, {"measurement": "damage to Barley, percent scale", "setting": "Barley; [17]", "value": 30, "unit": "%"}, {"measurement": "herbicidal effect on Setaria, percent scale", "setting": "Setaria [2]; [17]", "value": 80, "unit": "%"}, {"measurement": "herbicidal effect on Chenopodium, percent scale", "setting": "Chenopodium [3]; [17]", "value": 90, "unit": "%"}, {"measurement": "herbicidal effect on Raphanus, percent scale", "setting": "Raphanus [5]; [17]", "value": 90, "unit": "%"}]}
{"smiles": "CCOC(=O)C1=NN(c2ccc(Cl)cc2Cl)C(C)(C(=O)OCC)C1", "note": "(stereo not shown) [Safener no. 3,03]", "values": [{"measurement": "herbicidal effect on Emex, percent scale", "setting": "Emex [1]; [17]", "value": 90, "unit": "%"}, {"measurement": "damage to Barley, percent scale", "setting": "Barley; [17]", "value": 30, "unit": "%"}, {"measurement": "herbicidal effect on Setaria, percent scale", "setting": "Setaria [2]; [17]", "value": 80, "unit": "%"}, {"measurement": "herbicidal effect on Chenopodium, percent scale", "setting": "Chenopodium [3]; [17]", "value": 80, "unit": "%"}, {"measurement": "damage to Wheat, percent scale", "setting": "Wheat; [16]", "value": 5, "unit": "%"}, {"measurement": "herbicidal effect on Setaria, percent scale", "setting": "Setaria [4]; [16]", "value": 70, "unit": "%"}, {"measurement": "herbicidal effect on Raphanus, percent scale", "setting": "Raphanus [5]; [17]", "value": 80, "unit": "%"}, {"measurement": "herbicidal effect on Emex, percent scale", "setting": "Emex [6]; [16]", "value": 90, "unit": "%"}, {"measurement": "herbicidal effect on Raphanus, percent scale", "setting": "Raphanus [10]; [16]", "value": 80, "unit": "%"}, {"measurement": "herbicidal effect on Chenopodium, percent scale", "setting": "Chenopodium [11]; [16]", "value": 90, "unit": "%"}]}
{"smiles": "FC(F)(F)C(=NOCC1OCCO1)c1ccc(Cl)cc1", "note": "[Safener no. 6.02]", "values": [{"measurement": "herbicidal effect on Emex, percent scale", "setting": "Emex [1]; [17]", "value": 90, "unit": "%"}, {"measurement": "damage to Barley, percent scale", "setting": "Barley; [17]", "value": 30, "unit": "%"}, {"measurement": "herbicidal effect on Setaria, percent scale", "setting": "Setaria [2]; [17]", "value": 80, "unit": "%"}, {"measurement": "herbicidal effect on Chenopodium, percent scale", "setting": "Chenopodium [3]; [17]", "value": 80, "unit": "%"}, {"measurement": "damage to Wheat, percent scale", "setting": "Wheat; [17]", "value": 10, "unit": "%"}, {"measurement": "herbicidal effect on Setaria, percent scale", "setting": "Setaria [4]; [17]", "value": 80, "unit": "%"}, {"measurement": "herbicidal effect on Raphanus, percent scale", "setting": "Raphanus [5]; [17]", "value": 80, "unit": "%"}, {"measurement": "herbicidal effect on Emex, percent scale", "setting": "Emex [6]; [17]", "value": 90, "unit": "%"}, {"measurement": "herbicidal effect on Raphanus, percent scale", "setting": "Raphanus [10]; [17]", "value": 80, "unit": "%"}, {"measurement": "herbicidal effect on Chenopodium, percent scale", "setting": "Chenopodium [11]; [17]", "value": 80, "unit": "%"}]}
